Experimental data: PMC5424110, “Preclinical anti-arthritic study and pharmacokinetic properties of a potent histone deacetylase inhibitor MPT0G009” (Cell Death & Disease, 2014)
Entries after “also recorded” stand apart in the source; their conditions may differ.

Legend:
[1] = system: histone H3 acetylation and HDAC3 in RA-FLS; assay: Western blot of acetyl histone H3 and HDAC isoforms, RA-FLS; type: cell-based, human
Protocol: Then, cells were harvested and cell lysates were prepared for western blot analysis of the indicated proteins. (c) RA-FLSs were incubated for 1 h with or without the proteasome inhibitor, MG132 (1 μM). […] Results shown are representative of three independent experiments.

NFATc1 in RAW264.7 cells = assay: NFAT luciferase reporter gene assay, RANKL-induced; type: cell-based, mouse; conditions: RAW264.7, 5 nM, RANKL 50 ng/ml 24 h
Protocol: We also assessed the effect of MTP0G009 on the DNA-binding activity of NF-κB and NFATc1, two pivotal transcriptional factors involved in RANKL-induced pathways for promoting osteoclast differentiation.[14], [15] When RAW264.7 cells that had been transiently transfected with reporter plasmids were treated with 5 nM MPT0G009 for 30 min before and during 24-h stimulation with RANKL, MPT0G009 inhibited RANKL-induced NF-κB (Figure 3d) and NFATc1 (Figure 3e) luciferase activity.
RAW264.7 cells or RA-FLSs were seeded 1 day before transfection. […] For the reporter gene assay, 100 μl of reporter lysis buffer (Promega Corp.) was added, then the cells were scraped off the dishes, centrifuged at 17 000 g for 30 s at 4 °C and the supernatants collected. Aliquots of cell lysates (20 μl) were placed in the wells of an opaque black 96-well microtiter plate, then 40 μl of luciferase substrate (Promega Corp.) was added and the luminescence immediately measured in a microplate luminometer (Beckman Coulter, Krefeld, Germany).

CD-1 mice = assay: Determination of the MTD in CD-1 mice; type: in vivo; conditions: for Lethality (%): qd × 7; for Change of body weight (%) Day 7 / Change of body weight (%) Day 14 / Change of body weight (%) Day 21: qd × 7, mean±S.E.M.
Protocol: The MTD was determined using CD-1 mice at 8–10 weeks of age by dose ranging from 250 to 1000 mg/kg orally once a day for 1 week and then monitored for another 2 weeks. Each dose was tested on six mice in individual independent experiments. MTD was defined as the highest dose that could be given resulting in no drug-related moribund state or death, while temporary body weight loss was within 20%.

RA-FLS [2] = assay: Cell proliferation assay (SRB), RA-FLS; type: cell-based, human; conditions: 24 or 48 h
rat AIA model = assay: In vivo adjuvant-induced arthritis (AIA) model
Protocol: Next, we evaluated the in vivo anti-arthritic effects of MPT0G009 in a rat AIA model. […] The inhibition of synoviocytes proliferation and inflammation by MPT0G009 treatment was also observed (Supplementary Figure 1).
Figure 5 MPT0G009 inhibits the development of arthritis in an AIA model. […] Subsequently, swelling of both hind paws was photographed. (b) Hind paw volumes in the indicated group of rats were measured using a digital plethysmometer on the indicated day after AIA induction. (c) Arthritis scores on day 21. (d) Serum levels of interleukin (IL)-1β (left panel) and IL-6 (right panel) on day 21 as measured by enzyme-linked immunosorbent assay (ELISA). (e) Top five rows: photomicrographs of ankle joint sections from the different groups stained with hematoxylin and eosin, safranin O, immunohistochemically stained with an anti-acetyl H3 antibody or TRAP stain. Arrows indicate osteoblasts (OB); arrowheads indicate osteoclasts (OC). Bottom panels: micro-CT results (arrows indicate bone erosion). (f) The BMD (in mg/mm^3) and the BMC (in mg) values for the bone tissue of the tarsus were analyzed using CT Analysis Software.
Five-week-old male Lewis rats were obtained from the National Laboratory Animal Center (Taipei, Taiwan). Complete Freund's adjuvant (CFA) was prepared by suspending heat-killed Mycobacterium butyricum (Difco, Sparks, MD, USA) in mineral oil at 3 mg/ml. CFA-induced arthritis was induced by intradermal injection of 100 μl of the CFA emulsion into the base of the right hind paw on day 0. […] On days 0, 2, 6, 9, 13, 17 and 21, the animals were weighed and both hind paw volumes measured using a digital plethysmometer (Diagnostic & Research Instruments Co. Ltd, Taipei, Taiwan). On day 21, micro-CT of the paws was performed by the Core Facilities Center of the National Research Program for Biopharmaceuticals using an in vivo micro-CT scanner (Skyscan 1176, Bruker Corp., Kontich, Belgium) at 18 μm resolution and 180° scanning with a rotation step of 0.8° per image, 300 ms integration time, 70 keV photon energy and 350 μA current. The reconstructed volumes from micro-CT scans were analyzed by CT Analysis Software (CTAn, Bruker Corp.). Quantification of volumetric BMD and bone volume (BV) was performed in a defined bone area ranging 12 mm from tarsals to the end of the calcaneus. The BMC was described by the product of BV and BMD. On day 21, the rats were killed and specimens from the phalanges and ankle joints stained with hematoxylin–eosin or safranin O for histopathological assessment by the National Laboratory Animal Center. Intensity of arthritis was scored as described previously from 0 to 4.[19] All four legs were scored, so the highest possible arthritic score was 16.

p21 in RA-FLS = assay: p21 expression in RA-FLS by flow cytometry
Protocol: After three washes with FACS washing buffer, the fluorescence of the cells was analyzed on a FACScan flow cytometer (BD Biosciences). […] They were then incubated for 30 min at room temperature with 0.2 ml of DNA extraction buffer (0.2 M Na2HPO4 and 0.1 M citric acid buffer, pH 7.8), resuspended in 1 ml of propidium iodide staining buffer (0.1% Triton X-100, 100 μg/ml of RNase A and 80 μg/ml of propidium iodide in PBS), incubated at 37 °C for 30 min in the dark, sorted by FACScan, and analyzed using CellQuest software (BD Biosciences).

RA-FLS [3] = assay: Cell cycle distribution by propidium iodide flow cytometry; type: cell-based, human; conditions: RA-FLS 24 h, MPT0G009 1–1000 nM, SAHA 3–3000 nM
recombinant HDAC8 = biological target: T1, recombinant HDAC8 (Homo sapiens, UniProt Q9BY41); assay: Fluorogenic assay kit, recombinant HDAC8 enzyme activity; type: biochemical; conditions: mean±S.E.M., three replicate experiments; read-out: IC50 (nM) of HDAC isoforms enzyme, DHAC8
T1 construct: purchased BPS Bioscience Corp. (San Diego, CA, USA)
Text: Using kits that contained different recombinant HDAC isoforms, we evaluated the ability of MPT0G009 to inhibit HDAC-mediated deacetylation of lysine residues on the substrates that were provided. […] Fluorogenic HDAC assay kits were used to assess the ability of HDAC inhibitors to inhibit deacetylation of lysine residues on the substrate by recombinant HDAC1, 2, 3, 4, 6 or 8 according to the manufacturer's instructions.

[4] = day 21, ELISA, MPT0G009 25 mg/kg, SAHA 200 mg/kg, indomethacin 1 mg/kg
[5] = oral daily days 2 to 21, MPT0G009 25 mg/kg, SAHA 200 mg/kg, indomethacin 1 mg/kg, vs vehicle

T1 sequence (Q9BY41 whole entry, canonical isoform): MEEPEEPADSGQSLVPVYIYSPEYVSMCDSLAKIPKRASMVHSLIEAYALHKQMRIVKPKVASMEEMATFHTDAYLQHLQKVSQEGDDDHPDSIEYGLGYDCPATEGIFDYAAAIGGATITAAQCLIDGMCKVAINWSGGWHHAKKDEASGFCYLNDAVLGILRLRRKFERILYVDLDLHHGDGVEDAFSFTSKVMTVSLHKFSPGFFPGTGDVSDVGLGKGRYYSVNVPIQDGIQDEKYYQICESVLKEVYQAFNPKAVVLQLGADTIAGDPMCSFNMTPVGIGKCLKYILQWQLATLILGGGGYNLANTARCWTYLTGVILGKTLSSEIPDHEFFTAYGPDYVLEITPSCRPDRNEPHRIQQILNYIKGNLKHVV

## COc1ccc(S(=O)(=O)N2CCc3cc(C=CC(=O)NO)ccc32)cc1 [MPT0G009, 3-[1-(4-methoxybenzenesulfonyl)-2,3-dihydro-1H-indol-5-yl]-N-hydroxyacrylamide]
[1]; 1 μM MPT0G009 or 30 μM SAHA, 6, 12 or 24 h, starting at 12 h
  acetylation of histone H3 (Acetyl-H3): significant hyperacetylation
[1]; 12 or 24 h, 1 μM MPT0G009 or 30 μM SAHA
  levels of HDAC3: decreased levels of HDAC3
NFATc1 in RAW264.7 cells
  RANKL-induced NFATc1 luciferase activity: inhibited
CD-1 mice; 250 mg/kg p.o.
  Lethality (%): 0%
  Change of body weight (%) Day 7: +8.7±0.5%
  Change of body weight (%) Day 14: +17.0±0.4%
  Change of body weight (%) Day 21: +22.6±0.6%
CD-1 mice; 500 mg/kg p.o.
  Lethality (%): 0%
  Change of body weight (%) Day 7: +1.6±0.3%
  Change of body weight (%) Day 14: +16.5±0.6%
  Change of body weight (%) Day 21: +24.0±0.9%
CD-1 mice; 1000 mg/kg p.o.
  Lethality (%): 0%
  Change of body weight (%) Day 7: +4.4±0.6%
  Change of body weight (%) Day 14: +12.0±0.7%
  Change of body weight (%) Day 21: +15.3±0.8%
CD-1 mice; up to 1000 mg/kg/day, daily × 7, within 3 weeks
  adverse effects / tolerability: No significant adverse effects; also recorded: well tolerated and safe
RA-FLS [2]
  anti-proliferative effect: concentration-dependent anti-proliferative effects
Rat AIA model; 25 mg/kg
  cartilage degradation (safranin O staining of ankle joints): markedly reduced
  formation of osteoclasts (TRAP stain): significantly decreased
  leukocyte infiltration, synovitis (hematoxylin and eosin staining): significantly reduced
  levels of acetyl-histone H3 (immunohistochemical staining): increased levels
Rat AIA model; 25 mg/kg, day 21
  bone destruction (micro-CT): ameliorated
Rat AIA model; 25 mg/kg, tarsus, micro-CT
  bone mineral content (BMC): prevented the decrease
  bone mineral density (BMD): prevented the decrease
Rat AIA model; [4]
  serum levels of IL-1β: significant decreases
  serum levels of IL-6: significant decreases
Rat AIA model; day 21, MPT0G009 25 mg/kg, SAHA 200 mg/kg, indomethacin 1 mg/kg, vs vehicle
  arthritis scores: significant reductions
Rat AIA model; [5]
  paw swelling: significant reductions
  paw volume: significant reductions
p21 in RA-FLS; RA-FLS 24 h, 1 μM MPT0G009 or 3 μM SAHA, flow cytometry or western blot
  expression of p21: significantly increased
p21 in RA-FLS; RA-FLS, 1 μM, 24 h, Figure 1h
  p21 (flow cytometry): 94.71%
RA-FLS [3]
  subG1 peak (cellular apoptosis): did not increase the subG1 peak
RA-FLS [3]; all concentrations
  cell cycle arrest: G0/G1 phase arrest
Recombinant HDAC8
  IC50: 22.5 ± 2.16 nM
